This is an account of results in ChEMBL document CHEMBL1126702, “Modeling the anticancer action of some retinoid compounds by making use of the OASIS method” (J Med Chem, 1993).

For one data set, the system named is Cricetinae gen. sp. Put plainly: Tested for anticancer activity against hamster tracheal cells. The data set is classed as functional, Trachea.
The nature of data set [1]: Partition coefficient (logP). Format: physicochemical. The following applies: octanol/water.

Some results are limits rather than exact numbers.

As to `CC(=O)C1=C(/C=C/C(C)=C/C=C/C(C)=C/C=O)C(C)(C)CC1`, the “-Log ED50” value with Cricetinae gen. sp. worked out at 9.3. In data set [1] (read-out: logP), the logP (in general, the decadic logarithm of the partition coefficient of the neutral form, usually between octanol and water) was found to be 6.63.

In the case of `CCC(=O)/C=C(C)/C=C/C=C(C)/C=C/c1c(C)cc(O)c(C)c1C`, the “-Log ED50” value with Cricetinae gen. sp. was determined as 7. In data set [1] (read-out: logP), the logP came to 7.34.

For the compound `CC(=O)/C=C(C)/C=C/C=C(C)/C=C/C1(O)C(C)(C)CCCC1(C)O` (stereo not drawn), the “-Log ED50” value in the data set with Cricetinae gen. sp. is listed as 6.7. For the same compound, the logP in data set [1] (read-out: logP) is 4.2.

As to `CC(=O)/C=C(C)/C=C/C=C(C)/C=C/C12OC1(C)CCCC2(C)C` (stereo not drawn), the “-Log ED50” value in the data set on Cricetinae gen. sp. is 8.52. Also, in data set [1] (read-out: logP), the logP was 5.08.

In the case of `CC1=C(/C=C/C(C)=C/C=C/C(C)=C/C=O)C(C)(C)CCC1=O`, the “-Log ED50” value with Cricetinae gen. sp. was 9.15. Also, the lipophilicity (logP) in data set [1] (read-out: logP) amounted to 6.63.

As for `COc1cc(C)c(/C=C/C(C)=C/C=C/C(C)=C/C=O)c(C)c1C`, the “-Log ED50” value in the data set on Cricetinae gen. sp. is 8.3. Moreover, the logP in data set [1] (read-out: logP) came to 6.57.

Regarding `CC(/C=C/C=C(C)/C=C/c1ccco1)=C\C=O`, the “-Log ED50” value in the data set on Cricetinae gen. sp. was determined as 6. In addition, the logP in data set [1] (read-out: logP) came out at 3.69.

Regarding `CCC(=O)/C=C(C)/C=C/C=C(C)/C=C/c1c(C)cc(OC)c(C)c1C`, the “-Log ED50” value with Cricetinae gen. sp. was 7.7. Also, the logP in data set [1] (read-out: logP) worked out at 7.22.

On to `COC(C)C1=C(/C=C/C(C)=C/C=C/C(C)=C/C=O)C(C)(C)CC1` (stereo not drawn), for which the “-Log ED50” value in the data set with Cricetinae gen. sp. turned out to be 9.7. For the same compound, in data set [1] (read-out: logP), the logP is 6.58.

Turning to `CC(/C=C/C=C(C)/C=C/c1ccccc1)=C\C=O`, the “-Log ED50” value in the data set with Cricetinae gen. sp. is 6. Further, the logP in data set [1] (read-out: logP) came to 5.37.

As for `CC(/C=C/C=C(C)/C=C/c1cccnc1)=C\C=O`, the “-Log ED50” value with Cricetinae gen. sp. is reported as 6.52. Also, in data set [1] (read-out: logP), the log partition coefficient (logP) was found to be 4.69.

In the case of `CC(/C=C/C=C(C)/C=C/C1C(C)CCCC1(C)C)=C\C=O` (stereo not drawn), in the data set on Cricetinae gen. sp., the “-Log ED50” value is given as below 9. For the same compound, the lipophilicity (logP) in data set [1] (read-out: logP) amounted to 7.29.

In the case of `CCC(=O)/C=C(C)/C=C/C=C(C)/C=C/C1=C(C)CCCC1(C)C`, the “-Log ED50” value in the data set on Cricetinae gen. sp. came to 9.3. Besides, the logP in data set [1] (read-out: logP) was 8.12.

As for `CC(=O)/C=C(C)/C=C/C=C(C)/C=C/C1=C(C)CCCC1(C)C`, the “-Log ED50” value with Cricetinae gen. sp. came to 9.52. The logP in data set [1] (read-out: logP) turned out to be 7.63.

For `CC1=C(/C=C/C(C)=C/C=C/C(C)=C/C=O)C(C)(C)CCC1O` (stereo not drawn), the “-Log ED50” value in the data set with Cricetinae gen. sp. is recorded as 9.15. In addition, the logP in data set [1] (read-out: logP) was determined as 6.1.

Regarding `CC(/C=C/C=C(C)/C=C/c1ccsc1)=C\C=O`, in the data set on Cricetinae gen. sp., the “-Log ED50” value was above 8. In addition, in data set [1] (read-out: logP), the logP was 4.13.

On to `CC(/C=C/C=C(C)/C=C/C12OC1(C)CCCC2(C)C)=C\C=O` (stereo not drawn), for which, in the data set on Cricetinae gen. sp., the “-Log ED50” value was 8.7. Besides, the logP in data set [1] (read-out: logP) was determined as 4.91.

`CC1=CCCC(C)(C)C1/C=C/C(C)=C/C=C/C(C)=C/C=O` (stereo in doubt; 16): in the data set with Cricetinae gen. sp., the “-Log ED50” value was below 8. This compound returned a lipophilicity (logP) in data set [1] of 7.09.

As for `CC1=CCCC(C)(C)C1/C=C/C(C)=C/C=C/C(C)=C/C=O` (stereo in doubt; 19), the “-Log ED50” value with Cricetinae gen. sp. is on record as 10.52. The logP in data set [1] (read-out: logP) came to 7.47.
